This note sets out measurements from ChEMBL document CHEMBL5727946, “PD-1/PD-L1 inhibitors” (2020).

pIC50: −log10 of the molar value.

The target in the experiment is Programmed cell death protein 1/Programmed cell death 1 ligand 1 (Homo sapiens, UniProt Q15116+Q9NZQ7). Kind of experiment: PD-1/PD-L1 & CTLA/CD80 Biochemical Protein-Protein Interaction Assay: Compounds were tested in biochemical protein-protein interaction assays to determine if they can specifically block the interaction between the extracellular domains of PD-1/PD-L1 or CTLA/CD80. Binding of the protein pairs is measured using a bead based Amplified Luminescent Proximity Homogeneous Assay (ALPHA) platform. […] Final protein concentration in the assays were 0.3 nM (His tagged PD-L1), 2.5 nM (biotinylated Fc-PD-1), 1 nM (His tagged CTLA4) and 1 nM (biotinylated CD80). In kind it is protein-complex assay.
Chain of Programmed cell death protein 1/Programmed cell death 1 ligand 1 (Q15116 whole entry, the tested form may be a part): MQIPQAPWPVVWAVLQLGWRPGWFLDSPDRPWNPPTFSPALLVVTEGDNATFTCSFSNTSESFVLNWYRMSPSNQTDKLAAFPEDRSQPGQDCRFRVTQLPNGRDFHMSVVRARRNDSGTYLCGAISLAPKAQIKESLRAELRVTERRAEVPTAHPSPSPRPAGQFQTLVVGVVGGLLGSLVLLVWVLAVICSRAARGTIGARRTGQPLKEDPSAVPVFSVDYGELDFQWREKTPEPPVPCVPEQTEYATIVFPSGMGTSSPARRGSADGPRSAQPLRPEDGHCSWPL
Chain of Programmed cell death protein 1/Programmed cell death 1 ligand 1 (Q9NZQ7 whole entry, the tested form may be a part): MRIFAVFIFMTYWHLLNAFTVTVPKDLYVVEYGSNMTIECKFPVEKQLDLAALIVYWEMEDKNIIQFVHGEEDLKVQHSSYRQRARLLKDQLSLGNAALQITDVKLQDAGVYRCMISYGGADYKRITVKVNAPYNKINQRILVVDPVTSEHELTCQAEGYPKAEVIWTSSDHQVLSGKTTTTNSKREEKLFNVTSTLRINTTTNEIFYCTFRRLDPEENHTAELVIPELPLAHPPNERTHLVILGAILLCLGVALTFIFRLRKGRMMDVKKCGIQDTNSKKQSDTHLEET
Broadly, the pIC50 is −log10 of the IC50, conventionally taken in molar units. `COc1nc(O[C@H]2CCc3c(-c4cccc(-c5cnc([C@@H](C)NC[C@H]6CCC(=O)N6)c(OC)n5)c4Cl)cccc32)c(Cl)cc1CN1CC[C@@H](C(=O)O)C1` gave a pIC50 of no less than 10.19.

`CCS(=O)(=O)NC(=O)[C@@H]1CCN(Cc2cc(Cl)c(O[C@H]3CCc4c(-c5cccc(-c6ccc(CNC[C@@H]7CCC(=O)N7)c(OC)n6)c5Cl)cccc43)nc2OC)C1` gave a pIC50 of 9.93.

Turning to `COc1nc(-c2cccc(-c3cccc4c3CC[C@@H]4Oc3nc(OC)c(CN4CC[C@@H](C(=O)NS(C)(=O)=O)C4)cc3Cl)c2Cl)ccc1CN1CC(C)(O)C1`, the pIC50 is no less than 10.19.

Compound `COc1nc(-c2cccc(-c3cccc4c3CC[C@@H]4Oc3nc(OCc4cncc(Cl)c4)c(CNC4(C(=O)O)CC4)cc3C(F)(F)F)c2Cl)ccc1CNC[C@@H]1CCC(=O)N1` gave a pIC50 of 10.00.

Compound `COc1nc(-c2cccc(-c3cccc4c3CC[C@@H]4Oc3nc(OC)c(CN4CC[C@@H](C(=O)NS(=O)(=O)C(F)F)C4)cc3Cl)c2Cl)ccc1CNC[C@@H]1CCC(=O)N1` gave a pIC50 of 9.82.

In turn, `COc1nc(-c2cccc(-c3cccc4c3CC[C@@H]4Oc3nc(OC)c(CN4CC(C(=O)NS(=O)(=O)C(F)F)C4)cc3Cl)c2Cl)ccc1CNC[C@@H]1CCC(=O)N1` showed a pIC50 of 9.70.

For the compound `COc1nc(-c2cccc(-c3cccc4c3CC[C@@H]4Oc3nc(OCc4cncc(C#N)c4)c(CN4CC[C@@H](C(=O)O)C4)cc3Cl)c2Cl)ccc1CNC[C@@H]1CCC(=O)N1`, the pIC50 was no less than 10.19.

`COc1nc(-c2cccc(-c3cccc4c3CC[C@@H]4Oc3nc(OC)c(CN4CCC[C@@H]4C(=O)O)cc3Cl)c2Cl)ccc1CNC[C@@H]1CCC(=O)N1` showed a pIC50 of no less than 10.19.

`COc1nc(-c2cccc(-c3cccc4c3CC[C@@H]4Oc3nc(OC)c(CN4CC[C@@H](C(=O)NS(C)(=O)=O)C4)cc3Cl)c2Cl)ccc1CNC[C@@H]1CCC(=O)N1` showed a pIC50 of no less than 10.19.

The compound `COc1nc(-c2cccc(-c3cccc4c3CC[C@@H]4Oc3nc(OC)c(CN4CCC[C@H]4C(=O)O)cc3Cl)c2Cl)ccc1CNC[C@@H]1CCC(=O)N1` gave a pIC50 of no less than 10.19.

For `COc1nc(-c2cccc(-c3cccc4c3CC[C@@H]4Oc3nc(OC)c(CN4CC(C(=O)NS(C)(=O)=O)C4)cc3Cl)c2Cl)ccc1CN1CC(C)(O)C1`, the pIC50 was 10.06.

The compound `COc1nc(-c2cccc(-c3cccc4c3CC[C@@H]4Oc3nc(OCc4cncc(F)c4)c(CN4CC5(C(=O)O)CCC4CC5)cc3Cl)c2Cl)ccc1CNC[C@@H]1CCC(=O)N1` had a pIC50 of no less than 10.19.

For the compound `COc1nc(-c2cccc(-c3cccc4c3CC[C@@H]4Oc3nc(OC)c(CNC4(C(=O)O)CCC4)cc3Cl)c2Cl)ccc1CNC[C@@H]1CCC(=O)N1`, the pIC50 is no less than 10.19.

Regarding `CCOc1nc(O[C@H]2CCc3c(-c4cccc(-c5ccc(CNC[C@@H]6CCC(=O)N6)c(OC)n5)c4Cl)cccc32)c(Cl)cc1CN1CC2(C(=O)O)CCC1CC2`, the pIC50 was no less than 10.19.

The compound `COc1nc(-c2cccc(-c3cccc4c3CC[C@@H]4Oc3nc(OCc4cncc(C#N)c4)c(CN4CC[C@H](C(=O)O)C4)cc3Cl)c2Cl)ccc1CNC[C@@H]1CCC(=O)N1` gave a pIC50 of no less than 10.19.

In the case of `COc1nc(-c2cccc(-c3cccc4c3CC[C@@H]4Oc3nc(OC)c(CN4CC(C(=O)O)C4)cc3Cl)c2Cl)ccc1CN1CC(C)(O)C1`, the pIC50 is no less than 10.19.

Turning to `COc1nc(-c2cccc(-c3cccc4c3CC[C@@H]4Oc3nc(OCC#N)c(CN4CC5(C(=O)O)CCC4CC5)cc3Cl)c2Cl)ccc1CNC[C@@H]1CCC(=O)N1`, the pIC50 was no less than 10.19.

Turning to `COc1nc(-c2cccc(-c3cccc4c3CC[C@@H]4Oc3nc(OCc4cncc(C#N)c4)c(CN4CC5(C(=O)O)CCC4CC5)cc3Cl)c2Cl)ccc1CNC[C@@H]1CCC(=O)N1`, the pIC50 was no less than 10.19.

Compound `COc1nc(-c2cccc(-c3cccc4c3CC[C@@H]4Oc3nc(OC)c(CN4CC[C@H](C(=O)NS(C)(=O)=O)C4)cc3Cl)c2Cl)ccc1CNC[C@@H]1CCC(=O)N1` had a pIC50 of no less than 10.19.

Compound `CCOC(=O)C1CN(Cc2cc(Cl)c(O[C@H]3CCc4c(-c5cccc(-c6ccc(CNC[C@@H]7CCC(=O)N7)c(OC)n6)c5Cl)cccc43)nc2OC)C1` had a pIC50 of 8.70.

The compound `COc1nc(-c2cccc(-c3cccc4c3CC[C@@H]4Oc3nc(OC)c(CN4CCC[C@@H](C(=O)NS(C)(=O)=O)C4)cc3Cl)c2Cl)ccc1CNC[C@@H]1CCC(=O)N1` had a pIC50 of 10.17.

For the compound `COC(=O)[C@@H]1CCN(Cc2cc(Cl)c(O[C@H]3CCc4c(-c5cccc(-c6ccc(CNC[C@@H]7CCC(=O)N7)c(OC)n6)c5Cl)cccc43)nc2OC)C1`, the pIC50 is 8.41.

In turn, `COc1nc(-c2cccc(-c3cccc4c3CC[C@@H]4Oc3nc(OC)c(CNC4(C(=O)O)CC4)cc3Cl)c2Cl)ccc1CNC[C@@H]1CCC(=O)N1` showed a pIC50 of no less than 10.19.

In turn, `COc1nc(-c2cccc(-c3cccc4c3CC[C@@H]4Oc3nc(OC)c(CNC4(C(=O)O)CCOCC4)cc3Cl)c2Cl)ccc1CNC[C@@H]1CCC(=O)N1` gave a pIC50 of no less than 10.19.

Regarding `COc1nc(-c2cccc(-c3cccc4c3CC[C@@H]4Oc3nc(OC)c(CN4CCC[C@@]4(C)C(=O)O)cc3Cl)c2Cl)ccc1CNC[C@@H]1CCC(=O)N1`, the pIC50 was no less than 10.19.

`COc1nc(-c2cccc(-c3cccc4c3CC[C@@H]4Oc3nc(OC)c(CN[C@@H]4CCC[C@@H]4C(=O)O)cc3Cl)c2Cl)ccc1CNC[C@@H]1CCC(=O)N1` had a pIC50 of no less than 10.19.

Compound `COc1nc(-c2cccc(-c3cccc4c3CC[C@@H]4Oc3nc(OC(F)F)c(CN4CC5(C(=O)O)CCC4CC5)cc3Cl)c2Cl)ccc1CNC[C@@H]1CCC(=O)N1` showed a pIC50 of 9.77.

`CCOc1nc(O[C@H]2CCc3c(-c4cccc(-c5ccc(CNC[C@@H]6CCC(=O)N6)c(OC)n5)c4Cl)cccc32)c(Cl)cc1CN1CC[C@H](C(=O)O)C1` had a pIC50 of no less than 10.19.
